Consider 2 compounds from ChEMBL document CHEMBL3390840, “Expanding the horizon of chemotherapeutic targets: From MDM2 to MDMX (MDM4)” (Medchemcomm, 2011).

For one experiment, the target named is MDMX (Homo sapiens, UniProt O15151). Briefly: Inhibition of human recombinant MDMX (1 to 185) after 30 mins by fluorescence polarization assay.
The target of another experiment is T1, Protein Mdm4 (Homo sapiens, UniProt O15151).
T1 sequence (O15151 whole entry): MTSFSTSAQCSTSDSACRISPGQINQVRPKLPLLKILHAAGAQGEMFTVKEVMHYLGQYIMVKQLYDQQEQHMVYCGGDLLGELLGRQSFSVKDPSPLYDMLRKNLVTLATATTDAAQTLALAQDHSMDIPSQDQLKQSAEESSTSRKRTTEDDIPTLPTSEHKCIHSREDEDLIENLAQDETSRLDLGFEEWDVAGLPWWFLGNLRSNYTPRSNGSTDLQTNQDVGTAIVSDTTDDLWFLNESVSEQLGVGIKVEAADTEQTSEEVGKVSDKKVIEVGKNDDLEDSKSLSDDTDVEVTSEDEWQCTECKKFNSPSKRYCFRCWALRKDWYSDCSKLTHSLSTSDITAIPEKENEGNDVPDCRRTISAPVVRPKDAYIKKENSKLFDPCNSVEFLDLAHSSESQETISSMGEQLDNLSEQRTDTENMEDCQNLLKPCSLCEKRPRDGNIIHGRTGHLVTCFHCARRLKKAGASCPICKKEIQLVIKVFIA
Briefly: Inhibition of human full length GST-tagged MDMX expressed in Escherichia coli TG1 after 15 mins by ELISA. On the technique in general: ELISA stands for enzyme-linked immunosorbent assay.

The target in experiment [1] is E3 ubiquitin-protein ligase Mdm2 (Homo sapiens, UniProt Q00987). The experiment is described as follows: Inhibition of human full length GST-tagged MDM2 expressed in Escherichia coli TG1 after 15 mins by ELISA.
Chain of E3 ubiquitin-protein ligase Mdm2 (Q00987 whole entry): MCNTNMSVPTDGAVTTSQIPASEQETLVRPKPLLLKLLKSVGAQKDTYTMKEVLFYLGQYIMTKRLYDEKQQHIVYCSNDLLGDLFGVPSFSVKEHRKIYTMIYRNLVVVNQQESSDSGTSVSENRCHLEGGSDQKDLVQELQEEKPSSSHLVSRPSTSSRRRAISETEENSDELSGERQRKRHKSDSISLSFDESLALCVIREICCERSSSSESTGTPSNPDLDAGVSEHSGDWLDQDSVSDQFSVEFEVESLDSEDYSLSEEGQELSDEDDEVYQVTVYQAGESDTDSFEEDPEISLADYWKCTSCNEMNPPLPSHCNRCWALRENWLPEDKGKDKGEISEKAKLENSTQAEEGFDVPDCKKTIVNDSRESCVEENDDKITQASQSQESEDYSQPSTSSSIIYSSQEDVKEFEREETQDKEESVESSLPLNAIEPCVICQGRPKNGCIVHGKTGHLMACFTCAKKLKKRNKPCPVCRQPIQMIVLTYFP

In general, EC50 refers to the concentration needed to bring the measured effect to its halfway point. For `CCOc1cc(/C=C2\C(=O)N(c3ccccc3)N=C2C)cc(Cl)c1OCC(=O)OC`, the concentration giving a half-maximal response (EC50) at MDMX stood at 840 nM. One may read the IC50 as the concentration at which inhibition is half-maximal. H-MPRFMDYWEGLN-OH: the results for the IC50 (against Protein Mdm4; in experiment [1]) were 1650 nM and 150 nM, respectively.
